Columns and labels:
hypoxemic rabbits = conditions: cited from earlier work
[1] = Permeation (diffusion) cell: hydrogen peroxide release from UHP/PFC slurry across a flat PLGA membrane; type: physicochemical; conditions: UHP/PFC slurry below, distilled water above
From the text: A diffusion cell was constructed in order to measure the release rate of hydrogen peroxide from UHP and its diffusion across a selectively permeable membrane. UHP was dispersed in a PFC liquid and maintained in the bottom half of the cell. Rather than coat the particles, a flat PLGA membrane was used to separate the UHP from distilled water located in the top half of the cell. The PLGA membrane is permeable to water and hydrogen peroxide, but is a very effective barrier to permeation of the PFC. Thus, during the experiment, water diffused across the PLGA membrane and into the PFC/UHP slurry in the bottom half of the cell. Hydrogen peroxide was generated when the water contacted the UHP. The hydrogen peroxide then diffused through the PLGA membrane into the top half of the diffusion cell.
The amount of hydrogen peroxide in the top half of the cell was monitored colorimetrically by testing samples that were periodically removed from the water-rich phase in the top half of the cell. […]

Compound | rise in arterial PO2 (hypoxemic rabbits; hypoxemic rabbits, intravenous UHP) [mmHg] | outcome at amounts that would supply the oxygen consumption needs of a rabbit (hypoxemic rabbits; rabbits, high UHP amounts) | diffusion through the PLGA membrane [1]
NC(N)=O.OO [UHP, urea hydrogen peroxide] | 10 | died of gas emboli | 
NC(N)=O [urea] |  |  | did not diffuse through the membrane
